“And” between values parts separate entries of the source, which are not always exact repeats. Identical values can stand only once. Like-named read-outs stand apart in the source and are kept apart here.
Key:
[1] = target: T1, acetylcholinesterase from electric eel (AChE) (Electrophorus electricus, UniProt O42275); assay: Acetylcholinesterase inhibitory assay (Ellman's microplate assay); assay type: biochemical; details: for IC50: Mean ± SD (n = 3)
T1 construct: purchased Sigma Chemicals (St. Louis, MO, USA)
T1 sequence (O42275 24-633): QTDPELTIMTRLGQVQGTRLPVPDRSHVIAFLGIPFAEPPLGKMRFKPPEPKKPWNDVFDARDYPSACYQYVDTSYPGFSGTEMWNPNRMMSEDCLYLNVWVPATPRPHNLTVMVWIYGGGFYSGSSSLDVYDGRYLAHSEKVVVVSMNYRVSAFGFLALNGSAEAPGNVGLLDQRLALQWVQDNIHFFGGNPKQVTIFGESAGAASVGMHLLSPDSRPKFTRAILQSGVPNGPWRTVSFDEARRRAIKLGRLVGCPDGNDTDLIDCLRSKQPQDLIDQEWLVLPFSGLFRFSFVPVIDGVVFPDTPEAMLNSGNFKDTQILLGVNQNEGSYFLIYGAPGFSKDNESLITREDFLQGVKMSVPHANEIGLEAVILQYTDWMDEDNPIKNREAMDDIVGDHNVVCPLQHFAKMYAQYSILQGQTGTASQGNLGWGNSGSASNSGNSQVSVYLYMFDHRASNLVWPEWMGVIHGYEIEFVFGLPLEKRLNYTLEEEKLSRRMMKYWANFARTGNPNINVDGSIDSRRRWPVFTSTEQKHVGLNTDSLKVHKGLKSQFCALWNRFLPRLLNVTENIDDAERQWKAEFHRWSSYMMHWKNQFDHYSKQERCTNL
Experimental: (§1) Acetylthiocholine iodide (ATCl), acetylcholinesterase from electric eel (AChE), 5,5'-dithiobis[2-nitrobenzoic acid] […] All the other reagents used were of analytical grade.
(§2) Cholinesterase enzymes inhibitory potential of test samples was evaluated using Ellman’s microplate assay following the method described by Ahmed and Gilani with slight modifications. […] The concentration of DMSO in final reaction mixture was 1%.
(§3) For acetylcholinesterase (AChE) inhibitory assay, 140 μL of 0.1 M sodium phosphate buffer (pH 8) was first added to a 96-wells microplate followed by 20 μL of test samples and 20 μL of 0.09 units/mL acetylcholinesterase enzyme. After 15 min of pre-incubation at 25 °C, 10 μL of 10 mM 5,5'-dithiobis (2-nitrobenzoic acid) was added into each well, followed by 10 μL of 14 mM acetylthiocholine iodide. After the initiation of enzymatic reaction, absorbance of the coloured end-product was measured for 15 min using Tecan Infinite 200 Pro Microplate Spectrophotometer (Männedorf, Switzerland) at 417 nm.
(§4) For butyrylcholinesterase (BChE) inhibitory assay, the same procedures as described above were followed except for the use of enzyme and substrate, which were BChE from equine serum and S-butyrylthiocholine chloride, respectively. Each test was conducted in triplicate. Absorbencies of the test samples were corrected by subtracting the absorbance of their respective blank. […] Percentage inhibition was calculated using the following formula: Percentage inhibition (%) = Absorbance of control - Absorbance of test sample/Absorbance of control×100%

[2] = target: T2, butyrylcholinesterase from equine serum (BChE) (Equus caballus, UniProt P81908); assay: Butyrylcholinesterase inhibitory assay (Ellman's microplate assay); assay type: biochemical
T2 construct: purchased Sigma Chemicals (St. Louis, MO, USA); host or cells: equine serum
T2 sequence (P81908 whole entry): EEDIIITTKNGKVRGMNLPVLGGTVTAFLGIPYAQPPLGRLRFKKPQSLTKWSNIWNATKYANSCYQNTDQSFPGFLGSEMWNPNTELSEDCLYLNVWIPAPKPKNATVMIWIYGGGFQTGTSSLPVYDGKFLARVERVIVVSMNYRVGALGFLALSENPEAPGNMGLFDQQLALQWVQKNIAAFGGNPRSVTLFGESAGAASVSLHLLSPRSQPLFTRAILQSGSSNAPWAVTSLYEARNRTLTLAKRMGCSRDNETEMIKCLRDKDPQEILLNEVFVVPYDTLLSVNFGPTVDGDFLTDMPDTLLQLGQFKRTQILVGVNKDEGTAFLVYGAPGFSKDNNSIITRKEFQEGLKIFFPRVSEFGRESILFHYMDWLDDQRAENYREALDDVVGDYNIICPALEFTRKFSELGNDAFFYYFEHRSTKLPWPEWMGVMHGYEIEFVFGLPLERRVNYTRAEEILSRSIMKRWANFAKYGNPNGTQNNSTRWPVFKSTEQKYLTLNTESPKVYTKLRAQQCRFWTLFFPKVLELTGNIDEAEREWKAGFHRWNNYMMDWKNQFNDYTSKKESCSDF
Experimental: as §1, §2, §3, §4

[3] = chemical constituents, read-out: AChE inhibition, IC50 (converted)
[4] = isolated chemical constituents at 10 μg/mL, initial screening

SMILES | Selectivity for AChE ([1]; chemical constituents, IC50(BChE)/IC50(AChE)) | IC50 [1, 3] | inhibition at 10 µg/mL [1, 4] | Selectivity for BChE ([2]; chemical constituents, IC50(AChE)/IC50(BChE)) | IC50 ([2]; chemical constituents, Mean ± SD (n = 3), read-out: BChE inhibition, IC50 (converted)) | inhibition at 10 µg/mL [2, 4] | IC50 ([1]; AChE inhibition, IC50, chemical constituents) | AChE inhibition [1, 4] | IC50 ([1]; read-out: AChE inhibition, IC50, chemical constituents)
COC(=O)/C=C/c1cc(OC)c(O)c(OC)c1 [Compound 2, (E)-methyl 3-(4-hydroxy-3,5-dimethoxyphenyl) acrylate] | 0.39 | 158 µM | 40.4% | 2.56 | 61.7 µM | 91.3% |  |  | 
COc1cc(/C=C/C(=O)O)cc(OC)c1OC [Compound 1, (E)-3-(3,4,5-Trimethoxyphenyl) acrylic acid] |  |  |  |  |  |  | 60.1 µM | much lower inhibition | 60.2 ± 14.4 µM
O=C1NCCc2c1[nH]c1ccccc21 [Compound 4, 1,2,3,4-Tetrahydro-1-oxo-β-carboline] |  | 83.3 µM and 83.4 µM | 41.3% |  |  |  |  |  | 

— article PMC6270359, “Cholinesterase Enzymes Inhibitors from the Leaves of Rauvolfia Reflexa and Their Molecular Docking Study” (Molecules, 2013)
